Like-named read-outs stand apart in the source and are kept apart here.

The record followed here is PMC6748986, “Potent modulation of the CepR quorum sensing receptor and virulence in a Burkholderia cepacia complex member using non-native lactone ligands” (Scientific Reports, 2019).

The target in one assay is T1, CepR (Burkholderia multivorans, UniProt Q93PF7).
T1 sequence (Q93PF7 1-239): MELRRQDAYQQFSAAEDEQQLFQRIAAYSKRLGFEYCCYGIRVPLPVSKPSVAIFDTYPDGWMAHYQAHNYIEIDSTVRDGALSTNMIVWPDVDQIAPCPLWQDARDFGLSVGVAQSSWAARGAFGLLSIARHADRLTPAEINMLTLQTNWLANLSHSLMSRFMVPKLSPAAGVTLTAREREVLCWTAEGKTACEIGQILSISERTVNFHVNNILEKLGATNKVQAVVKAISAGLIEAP
Description: CepR agonism in B. multivorans cepI::lacZ reporter (Bm-reporter). The class given is cell-based. Conditions: for activation at 100 µM: read-out: Act%; for Emax: read-out: Maximal Activation (%). The text has this:
We next sought to assess if the CepR modulators identified in the Ec-reporter maintained their activities in a member of the Bcc. For these studies, we generated a B. multivorans cepI::lacZ reporter organism (Bm-reporter) using standard allelic exchange methods (see Methods). Along with B. cenocepacia, B. multivorans is one of the most commonly isolated Bcc members[6],[44]. We note that small molecules must contend with a different cellular environment in the native organism relative to E. coli[48]; however, as both CepR and the cepI promoter are highly conserved among Bcc species (Fig. S3), we reasoned that the majority of compounds identified in the Ec-reporter (containing B. cenocepacia versions of the cepI promoter and the cepR gene) would maintain their relative activity profiles in CepR in B. multivorans. […] Similar to the Ec-reporter, CepR binding to the cepI promoter then induces β-galactosidase production, allowing for the quantitation of CepR activity. Using the Bm-reporter organism, we observed robust activity for CepR in response to C8-AHL (EC50 = 0.7 nM, Table 3).
The B. multivorans cepI::lacZ strain was used to obtain dose-response data for CepR in response to synthetic AHLs. Overnight cultures of B. multivorans cepI::lacZ were grown in LB medium at 37 °C with shaking (225 rpm). Aliquots (200 μL) of a 1:10 dilution of this overnight culture were plated into 96-well plates containing varying concentrations of compound, and then grown for 4 h at 37 °C with shaking (225 rpm). β-galactosidase production was measured as described above for E. coli, with the following changes: permeabilized cells were incubated at 25 °C with substrate CPRG for ~10 min until positive control wells developed a deep red color. For agonism assays, synthetic compound was screened alongside and compared to the native ligand, C8-AHL (100 μM). For antagonism assays, the concentration of native ligand utilized was 5 nM (approximately equal to twice its EC50 value).

Another assay has as its system B. multivorans ATCC17616. Description: C. elegans survival assay, B. multivorans infection. It counts as in vivo. Conditions: C. elegans N2 infected with B. multivorans; for Effect on survival of Bm-infected worms (agonists): 1 μM for agonists, relative to untreated worms; for Effect on survival of Bm-infected worms (antagonists): 50 μM for antagonists. The text has this:
We next assessed the effects of our lead CepR modulators on exacerbating or alleviating infections by a Bcc member using the nematode C. elegans as a model of pathogenicity. We infected N2 nematodes with B. multivorans ATCC17616 in the presence of compound, and assessed survival of worms over time (see Methods)[13],[35],[53]. None of the compounds tested caused measurable toxicity effects in uninfected worms under these conditions. […] Our results here, using chemical CepR modulators, appear to replicate these effects in B. multivorans nematode infections.
The C. elegans survival assay was based on previously reported procedures[35],[65]. To synchronize worms, eggs were harvested by hypochlorite bleaching (5 min in 1 mL 5% bleach, 0.25 mL 5 M NaOH, 3.75 mL H2O), and grown on Nematode Growth Media (NGM) + E. coli OP50 at 21 °C. B. multivorans was grown overnight with the compound of interest in LB medium (1 μM for agonists, 50 μM for antagonists), and then the overnight culture was centrifuged, resuspended in the assay medium, standardized to OD600 = 0.8, and 25 μL of this culture was used per condition. CFUs of these standardized cultures were used to confirm that bacteria numbers were relatively the same. For the survival assay, synchronized worms (L4 stage) were suspended in liquid NGM media containing bacteria and compound in 96-well plates (100 μL total volume). […] Plates were incubated at 25 °C, after which they were analyzed by a dissecting microscope. The fraction of dead worms was determined by scoring the number of dead worms and the total number of worms in each well. At least 30 nematodes were used for each well, and each assay was performed at least in duplicate on a single day (n ≥ 60). Survival assays were then repeated at least once on different days to verify patterns. Compound effect on worm survival rarely varied between replicates, but the overall worm susceptibility varied among assays. Kaplan-Meier survival curves were calculated using GraphPad Prism (v. 7.0) software.

As for `O=C(CCc1ccc(I)cc1)N[C@H]1CCOC1=O` [Compound E32], on CepR, the response was half-maximal at 0.08 nM (EC50), the activation at 100 µM was determined as 110% and the Emax worked out at 110%.
In the case of `O=C(CCc1ccc([N+](=O)[O-])cc1)N[C@H]1CCOC1=O` [Compound E37], on CepR, a half-maximal response (EC50) required 0.0025 nM, the activation at 100 µM is 91% and the Emax turned out to be 91%. The “EC50 fold lower than C8-AHL” value on CepR (Bm-reporter) is ~ 250 fold. The “Effect on survival of Bm-infected worms (agonists)” value (from here on “Effect on survival … (agonists)”) in the assay on B. multivorans ATCC17616 was “promoted worm killing”.
Take `CCCCCC(O)CC(=O)N[C@H]1CCOC1=O` (some centres unmarked) [3’OH-C8-AHL, reference compound]: the concentration for a half-maximal effect (EC50) at CepR (Bm-reporter, agonism dose-response, read-out: EC50) is at least 980 nM. Besides, at CepR (Bm-reporter, activity for 100 μM C8-AHL set to 100%, error ±10%), the “Maximal Activation (%)” value was 78%. The compound also came in with an Act% at CepR (Table S4, Bm-reporter, screening conc. 100 μM) of 78%. Further, the “Effect on survival … (agonists)” value in the assay on B. multivorans ATCC17616 was “did not appear to affect worm survival”.
Turning to `O=C(Cc1cccc(Br)c1)N[C@H]1CCOC1=O` [Compound C8], the “Effect on survival of Bm-infected worms (antagonists)” value (from here on “Effect on survival … (antagonists)”) with B. multivorans ATCC17616 is “prolonged nematode survival”.
For `CCCCCCCC(=O)N[C@H]1CCOC1=O` [Compound C8-AHL, N-octanoyl L-homoserine lactone, reference compound], on CepR, a half-maximal response (EC50) required 0.7 nM, the activation at 100 µM turned out to be 100% and the Emax amounted to 100%. In the assay with B. multivorans ATCC17616, the “Effect on survival … (agonists)” value is “significantly increased worm death”.
As to `O=C(CC1CCCC1)N[C@H]1CCOC1=O` [Compound B12], the “Effect on survival … (antagonists)” value with B. multivorans ATCC17616 was “prolonged nematode survival”.
With `O=C(CCc1ccc(C(F)(F)F)cc1)N[C@H]1CCOC1=O` [Compound E35], on CepR, the response was half-maximal at 0.022 nM (EC50), the activation at 100 µM is 98% and the Emax turned out to be 98%.
As to `O=C(Cc1cccc(C(F)(F)F)c1)N[C@H]1CCOC1=O` [Compound E3], the activation at 100 µM on CepR was 3.1%. Moreover, the “Effect on survival … (antagonists)” value with B. multivorans ATCC17616 is “prolonged nematode survival”.
